Experimental data published in patent publication US5128343A, “Derivatives of pyrimidinyl-piperazinyl-alkyl azoles with anxiolytic and/or tranquilizing activity” (Laboratorios del Dr. Esteve, priority 1989, dated 1992).
Where a name gives a salt, the structure may show the parent alone. Read-outs that look alike come from different tables or passages of the source.

System: male Wistar rats
Assay: conditioned avoidance response test (anxiolytic and tranquilizing action)
Assay type: in vivo
Details: suppression of conditioned avoidance response, oral administration 45 minutes before study; for Activity %: dose not given
Description: In this test, male Wistar rats of 200 grams weight are used, trained to jump over a barrier in an avoidance and exit cage (shuttle box) (Letica, reference L1 910 and L1 2700) in the 30 seconds following their introduction into the cage.
The products with anxiolytic or tranquilizing activity suppress the conditioned avoidance response.
Training: first day: 11 tests, at intervals of 3 minutes. Electro-shock on the paws, at 30 seconds (5 mA, 0.1 s, 10 s).
Second and third days: 2 tests per day, solely with selected rats [sum of the points of the first day (excepting the first test)>14].
Day of test: groups formed of selected rats. Oral administration of the product or of the vehicle 45 minutes before starting the study.

[1] = Rattus norvegicus, po, 0.75 h, read-out: ED50

Row | Compound | ED50 [1] [mg/kg] | Activity % [%] | ED50 (45 min) [mg/kg] | ED50 (dihydrochloride, 45 min) [mg/kg] | Activity % (dihydrochloride) [%]
1 | O=C1CC2(CCCC2)CC(=O)N1CCCCN1CCN(c2ncccn2)CC1 [Buspirone, reference compound] | 17.2 | 99 |  |  | 
2 | c1cnc(N2CCN(CCCCn3cccn3)CC2)nc1 [Example 1, 1H-pyrazole-1-(4-(4-(2-pyrimidinyl)-1-piperazinyl)-butyl)] | 26.2 | 98 |  |  | 
3 | Cc1cc(C)n(CCCCN2CCN(c3ncccn3)CC2)n1 [Example 2] | 80 | 50 |  |  | 
4 | Cc1nn(CCCCN2CCN(c3ncccn3)CC2)c(C)c1[N+](=O)[O-] [Example 3] | 58.3 | 61 |  |  | 
5 | Cc1cnn(CCCCN2CCN(c3ncccn3)CC2)c1 [Example 4] | < 20 | 98 |  |  | 
6 | c1cnc(N2CCN(CCCCn3ncc4ccccc43)CC2)nc1 [Example 5] | 80 | 45 |  |  | 
7 | Cc1nn(CCCCN2CCN(c3ncccn3)CC2)c(C)c1Br [Example 6] | 80 | 51 |  |  | 
8 | O=[N+]([O-])c1cnn(CCCCN2CCN(c3ncccn3)CC2)c1 [Example 7, 1H-pyrazole-4-nitro-1-(4-(4-(2-pyrimidinyl)-1-piperazinyl)-butyl)] | 6.2 | 98 |  |  | 
9 | Clc1cnn(CCCCN2CCN(c3ncccn3)CC2)c1 [Example 8, 1H-pyrazole-4-chloro-1-(4-(4-(2-pyrimidinyl)-1-piperazinyl)-butyl)] |  | 95 | 17.9 |  | 
10 | CCOC(=O)c1cnn(CCCCN2CCN(c3ncccn3)CC2)c1 [Example 9] |  | 14 |  |  | 
11 | Cc1cc(-c2ccccc2)n(CCCCN2CCN(c3ncccn3)CC2)n1 [Example 10] |  | 24 |  |  | 
12 | Brc1cnn(CCCCN2CCN(c3ncccn3)CC2)c1 [Example 11] | 28.9 | 95 |  |  | 
13 | N#Cc1cnn(CCCCN2CCN(c3ncccn3)CC2)c1 [Example 12] |  | 100 |  |  | 
14 | Fc1cnn(CCCCN2CCN(c3ncccn3)CC2)c1 [Example 13] |  | 85 |  |  | 
15 | Nc1cnn(CCCCN2CCN(c3ncccn3)CC2)c1 [Example 15, 1H-pyrazole-4-amino-1-(4-(4-(2-pyrimidinyl)-1-piperazinyl)-butyl)] | 27.7 | 79 |  |  | 
16 | CS(=O)(=O)Nc1cnn(CCCCN2CCN(c3ncccn3)CC2)c1 [Example 16, 1H-pyrazole-4-methylsulfonamido-1-(4-(4-(2-pyrimidinyl)-1-piperazinyl)-butyl)] | 40 | 64 |  |  | 
17 | O=C(Nc1cnn(CCCCN2CCN(c3ncccn3)CC2)c1)c1ccccc1 [Example 17] | 65.9 | 62 |  |  | 
18 | CC(=O)Nc1cnn(CCCCN2CCN(c3ncccn3)CC2)c1 [Example 18] | 28.8 | 89 |  |  | 
19 | CCC(C)Nc1cnn(CCCCN2CCN(c3ncccn3)CC2)c1 (stereo not shown) [Example 19] | 29.7 | 80 |  |  | 
20 | Brc1cnc(N2CCN(CCCCn3cc(Br)cn3)CC2)nc1 [Example 20] | 76.8 | 59 |  |  | 
21 | Clc1cnn(CCCCN2CCN(c3ncc(Br)cn3)CC2)c1 [Example 21] | 51.7 | 48 |  |  | 
22 | Cc1ccnn1CCCCN1CCN(c2ncccn2)CC1 [Example 22] |  | 47 |  |  | 
23 | Cc1c(Br)cnn1CCCCN1CCN(c2ncccn2)CC1 [Example 24, 1H-pyrazole-4-bromo-5-methyl-1-(4-(4-(2-pyrimidinyl)-1-piperazinyl)-butyl)] | 60.6 | 53 |  |  | 
24 | Cc1nn(CCCCN2CCN(c3ncccn3)CC2)cc1Br [Example 25] | 58.3 | 59 |  |  | 
25 | c1cnc(N2CCN(CCCCn3ncc4c3CCCC4)CC2)nc1 [Example 26] | 19.5 | 97 |  |  | 

Row | Compound | ED50 [1] [mg/kg] | Activity % [%] | ED50 (45 min) [mg/kg] | ED50 (dihydrochloride, 45 min) [mg/kg] | Activity % (dihydrochloride) [%]
26 | c1cnc(N2CCN(CCCCn3cc4c(n3)CCCC4)CC2)nc1 [Example 27] | 18.9 | 98 |  |  | 
27 | Cc1c(-c2ccccc2)cnn1CCCCN1CCN(c2ncccn2)CC1 [Example 28] | 32.2 | 75 |  |  | 
28 | Cc1nn(CCCCN2CCN(c3ncccn3)CC2)cc1-c1ccccc1 [Example 29] | 31.9 | 78 |  |  | 
29 | Fc1cn(CCCCN2CCN(c3ncccn3)CC2)nc1Cl [Example 30] | 53.9 | 85 |  |  | 
30 | COc1ccc(-c2cnn(CCCCN3CCN(c4ncccn4)CC3)c2)cc1 [Example 32] | 22.5 | 60 |  |  | 
31 | Clc1ccc(-c2cnn(CCCCN3CCN(c4ncccn4)CC3)c2)cc1 [Example 33] | 15.7 | 90 |  |  | 
32 | c1cnc(N2CCN(CCCCn3cc(-n4cccc4)cn3)CC2)nc1 [Example 34] | 5 | 100 |  |  | 
33 | c1ccc(-c2cnn(CCCCN3CCN(c4ncccn4)CC3)c2)cc1 [Example 35] | 27.4 | 100 |  |  | 
34 | c1ccc(-c2cc(-c3ccccc3)n(CCCCN3CCN(c4ncccn4)CC3)n2)cc1 [Example 36] | 122 | 31 |  |  | 
35 | O=S(=O)(Nc1cnn(CCCCN2CCN(c3ncccn3)CC2)c1)c1ccccc1 [Example 37] | 85 | 46 |  |  | 
36 | Cc1ccc(S(=O)(=O)Nc2cnn(CCCCN3CCN(c4ncccn4)CC3)c2)cc1 [Example 38] | 102 | 37 |  |  | 
37 | CCCCS(=O)(=O)Nc1cnn(CCCCN2CCN(c3ncccn3)CC2)c1 [Example 39] | 73 | 57 |  |  | 
38 | CCCS(=O)(=O)Nc1cnn(CCCCN2CCN(c3ncccn3)CC2)c1 [Example 40] | 73 | 57 |  |  | 
39 | CCS(=O)(=O)Nc1cnn(CCCCN2CCN(c3ncccn3)CC2)c1 [Example 41] | 29.3 | 77 |  |  | 
40 | Cc1nn(CCCCN2CCN(c3ncccn3)CC2)c(C)c1S(=O)(=O)N(C)C [Example 42] | 82 | 45 |  |  | 
41 | CN(C)S(=O)(=O)c1cnn(CCCCN2CCN(c3ncccn3)CC2)c1 [Example 43] | 72 | 63 |  |  | 
42 | O=S(=O)(O)c1cnn(CCCCN2CCN(c3ncccn3)CC2)c1 [Example 44] |  | 15 |  |  | 
43 | c1cnc(N2CCN(CCCCn3ccnc3)CC2)nc1 [Example 45] | 93 | 35 |  |  | 
44 | Clc1ncn(CCCCN2CCN(c3ncccn3)CC2)c1Cl [Example 46] |  | 99 |  |  | 
45 | Cc1cn(CCCCN2CCN(c3ncccn3)CC2)cn1 [Example 47] | 80 | 50 |  |  | 
46 | Cc1cncn1CCCCN1CCN(c2ncccn2)CC1 [Example 48] | 75 | 52 |  |  | 
47 | Clc1cnn(CCCCN2CCN(c3ncccn3)CC2)c1 [Example 49] |  | 100 | 14.5 |  | 
48 | Clc1cnn(CCCCN2CCN(c3ncccn3)CC2)c1 [Example 50, 1H-pyrazole-4-chloro-1-(4-(4-(2-pyrimidinyl)-1-piperazinyl)-butyldihydrochloride] |  |  |  | 4.9 | 99
49 | O=C1c2ccccc2S(=O)(=O)N1CCCCN1CCN(c2ncccn2)CC1 [Ipsapirone, reference compound] | 26.1 | 98 |  |  | 
